{"source": "patent US9315519B2", "about": "“Guanidine substituted tetrahydroisoquinoline compounds as factor XIa inhibitors” (BRISTOL-MYERS SQUIBB COMPANY, priority 2012, dated 2016)", "note": "Structures can show the parent of a compound that is named as a salt."}
{"biological_target": "purified human Factor XIa (Homo sapiens (Human), UniProt P03951)", "sequence (P03951 388-625)": "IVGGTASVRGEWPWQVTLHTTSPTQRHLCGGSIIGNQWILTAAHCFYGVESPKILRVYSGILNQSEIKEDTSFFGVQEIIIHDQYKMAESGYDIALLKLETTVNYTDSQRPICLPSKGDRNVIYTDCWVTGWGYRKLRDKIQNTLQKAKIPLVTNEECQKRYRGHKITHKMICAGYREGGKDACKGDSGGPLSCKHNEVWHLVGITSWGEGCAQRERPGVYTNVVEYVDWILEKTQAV", "sequence (P03951 19-387 partner)": "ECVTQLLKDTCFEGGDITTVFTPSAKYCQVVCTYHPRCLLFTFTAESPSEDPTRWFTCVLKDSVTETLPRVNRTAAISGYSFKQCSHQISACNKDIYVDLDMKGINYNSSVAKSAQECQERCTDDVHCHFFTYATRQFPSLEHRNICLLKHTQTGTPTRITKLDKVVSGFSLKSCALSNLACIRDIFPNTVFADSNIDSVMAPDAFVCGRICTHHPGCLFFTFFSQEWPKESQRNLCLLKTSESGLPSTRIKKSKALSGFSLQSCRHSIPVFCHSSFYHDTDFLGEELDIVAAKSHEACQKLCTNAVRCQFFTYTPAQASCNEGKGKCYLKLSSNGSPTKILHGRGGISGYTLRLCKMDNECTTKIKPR", "assay": "Factor XIa enzyme inhibition assay (chromogenic substrate S-2366)", "type": "biochemical", "settings": "substrate S-2366, pH 7.4", "experimental": "The effectiveness of compounds of the present invention as inhibitors of the coagulation factors XIa, VIIa, IXa, Xa, XIIa, plasma kallikrein or thrombin, can be determined using a relevant purified serine protease, respectively, and an appropriate synthetic substrate. The rate of hydrolysis of the chromogenic or fluorogenic substrate by the relevant serine protease was measured both in the absence and presence of compounds of the present invention. […] A decrease in the rate of absorbance or fluorescence change in the presence of inhibitor is indicative of enzyme inhibition. Such methods are known to one skilled in the art. The results of this assay are expressed as the inhibitory constant, Ki.\nFactor XIa determinations were made in 50 mM HEPES buffer at pH 7.4 containing 145 mM NaCl, 5 mM KCl, and 0.1% PEG 8000 (polyethylene glycol; JT Baker or Fisher Scientific). Determinations were made using purified human Factor XIa at a final concentration of 75-200 pM (Haematologic Technologies) and the synthetic substrate S-2366 (pyroGlu-Pro-Arg-pNA; CHROMOGENIX® or AnaSpec) at a concentration of 0.0002-0.001 M.\nThe Michaelis constant, Km, for substrate hydrolysis by each protease, was determined at 25° C. using the method of Lineweaver and Burk. Values of Ki were determined by allowing the protease to react with the substrate in the presence of the inhibitor. Reactions were allowed to go for periods of 20-180 minutes (depending on the protease) and the velocities (rate of absorbance or fluorescence change versus time) were measured. The following relationships were used to calculate Ki values: (vo−vs)/vs=I/(Ki(1+S/Km)) for a competitive inhibitor with one binding site; or vs/vo=A+((B−A)/1+((IC50/(I)n))); and Ki=IC50/(1+S/Km) for a competitive inhibitor where: […]", "units": {"Ki": "nM"}}
{"smiles": "N=C(N)N1CCc2nc(C(=O)N3CCc4c(Br)cccc4C3C(=O)Nc3ccc(C(=O)O)cc3)sc2C1", "note": "(stereo not drawn) [Example 1, 4-(5-bromo-2-(5-carbamimidoyl-4,5,6,7-tetrahydrothiazolo[5,4-c]pyridine-2-carbonyl)-1,2,3,4-tetrahydroisoquinoline-1-carboxamido)benzoic acid, TFA Salt]", "Ki": 90.6}
{"smiles": "COC1CCN(c2cccc3c2CCN(C(=O)c2nc4c(s2)CN(C(=N)N)CC4)C3C(=O)Nc2ccc(C(=O)O)cc2)CC1", "note": "(stereo not drawn) [Example 5, 4-(2-(5-carbamimidoyl-4,5,6,7-tetrahydrothiazolo[5,4-c]pyridine-2-carbonyl)-5-(4-methoxypiperidin-1-yl)-1,2,3,4-tetrahydroisoquinoline-1-carboxamido)benzoic acid, TFA salt]", "Ki": "< 5"}
{"smiles": "COC1CCN(c2cccc3c2CCN(C(=O)C2CC4(CCNCC4)C2)C3C(=O)Nc2ccc(C(=O)O)cc2)CC1", "note": "(stereo not drawn) [Example 12, 4-(5-(4-methoxypiperidin-1-yl)-2-(7-azaspiro[3.5]nonane-2-carbonyl)-1,2,3,4-tetrahydroisoquinoline-1-carboxamido)benzoic acid, bis TFA Salt]", "Ki": 190}
{"smiles": "CN1CCN(c2cccc3c2CCN(C(=O)C2CC4(CCN(C(=N)N)CC4)C2)[C@@H]3C(=O)Nc2ccc(C(=O)O)cc2)C(=O)C1", "note": "[Example 18, (S)-4-(2-(7-carbamimidoyl-7-azaspiro[3.5]nonane-2-carbonyl)-5-(4-methyl-2-oxopiperazin-1-yl)-1,2,3,4-tetrahydroisoquinoline-1-carboxamido)benzoic acid, bis HCl Salt]", "Ki": "< 5"}
{"smiles": "CN1CCN(c2cccc3c2CCN(C(=O)CC2CCN(C(=N)N)CC2)[C@H]3C(=O)Nc2ccc(C(=O)O)cc2)C(=O)C1", "note": "[Example 19, (R)-4-(2-(2-(1-carbamimidoylpiperidin-4-yl)acetyl)-5-(4-methyl-2-oxopiperazin-1-yl)-1,2,3,4-tetrahydroisoquinoline-1-carboxamido)benzoic acid, bis-HCl Salt]", "Ki": 382}
{"smiles": "COC1CCN(c2cccc3c2CCN(C(=O)C2CCN(C(=N)N)CC2)C3C(=O)Nc2ccc(C(=O)O)cc2)CC1", "note": "(stereo not drawn) [Example 24, 4-(2-(1-carbamimidoylpiperidine-4-carbonyl)-5-(4-methoxypiperidin-1-yl)-1,2,3,4-tetrahydroisoquinoline-1-carboxamido)benzoic acid, bis-TFA salt]", "Ki": 5.68}
